`CC(=O)N(CC(O)CO)c1c(I)c(C(=O)NCC(O)CO)c(I)c(C(=O)NCC(O)CO)c1I` (stereo not given) showed a solubility (mole fraction) (in 1,4-dioxane, 288.15 K) of 5.7e-05, a solubility (mole fraction) (in 1,4-dioxane, 293.15 K) of 6.9e-05 and a solubility (mole fraction) (in 1,4-dioxane, 298.15 K) of 8.3e-05. For the same molecule, the solubility (mole fraction) (in 1,4-dioxane, 303.15 K) was 0.0001, the solubility (mole fraction) (in 1,4-dioxane, 308.15 K) was 0.000121 and the solubility (mole fraction) (in 1,4-dioxane, 313.15 K) was 0.000145. For the same molecule, the solubility (mole fraction) (in 1,4-dioxane, 318.15 K) was 0.000174, the solubility (mole fraction) (in 1,4-dioxane, 323.15 K) was 0.000208 and the solubility (mole fraction) (in 2-butanone, 283.15 K) was 0.000148. It also gave a solubility (mole fraction) (in 2-butanone, 288.15 K) of 0.000178, a solubility (mole fraction) (in 2-butanone, 293.15 K) of 0.000211 and a solubility (mole fraction) (in 2-butanone, 298.15 K) of 0.000255. For the same molecule, the solubility (mole fraction) (in 2-butanone, 303.15 K) was 0.000301, the solubility (mole fraction) (in 2-butanone, 308.15 K) was 0.000358 and the solubility (mole fraction) (in 2-butanone, 313.15 K) was 0.000425. The solubility (mole fraction) (in 2-butanone, 318.15 K) was 0.00049, the solubility (mole fraction) (in 2-butanone, 323.15 K) was 0.000566 and the solubility (mole fraction) (in DMSO, 293.15 K) was 0.000293. The solubility (mole fraction) (in DMSO, 298.15 K) was 0.000357, the solubility (mole fraction) (in DMSO, 303.15 K) was 0.000428 and the solubility (mole fraction) (in DMSO, 308.15 K) was 0.00051. The solubility (mole fraction) (in DMSO, 313.15 K) was 0.000624, the solubility (mole fraction) (in DMSO, 318.15 K) was 0.000737 and the solubility (mole fraction) (in DMSO, 323.15 K) was 0.000869. It also gave a solubility (mole fraction) (in acetone, 283.15 K) of 0.000174, a solubility (mole fraction) (in acetone, 288.15 K) of 0.000209 and a solubility (mole fraction) (in acetone, 293.15 K) of 0.000256. For the same molecule, the solubility (mole fraction) (in acetone, 298.15 K) was 0.000308, the solubility (mole fraction) (in acetone, 303.15 K) was 0.000371 and the solubility (mole fraction) (in acetone, 308.15 K) was 0.000443. The solubility (mole fraction) (in acetone, 313.15 K) was 0.000526, the solubility (mole fraction) (in acetone, 318.15 K) was 0.00062 and the solubility (mole fraction) (in acetone, 323.15 K) was 0.000741. It also gave a solubility (mole fraction) (in acetonitrile, 283.15 K) of 8.47e-05, a solubility (mole fraction) (in acetonitrile, 288.15 K) of 0.000101 and a solubility (mole fraction) (in acetonitrile, 293.15 K) of 0.000123. For the same molecule, the solubility (mole fraction) (in acetonitrile, 298.15 K) was 0.000146, the solubility (mole fraction) (in acetonitrile, 303.15 K) was 0.000175 and the solubility (mole fraction) (in acetonitrile, 308.15 K) was 0.00021. For the same molecule, the solubility (mole fraction) (in acetonitrile, 313.15 K) was 0.00025, the solubility (mole fraction) (in acetonitrile, 318.15 K) was 0.000298 and the solubility (mole fraction) (in acetonitrile, 323.15 K) was 0.000354. For the same molecule, the solubility (mole fraction) (in cyclohexane, 283.15 K) was 9.38e-06, the solubility (mole fraction) (in cyclohexane, 288.15 K) was 1.22e-05 and the solubility (mole fraction) (in cyclohexane, 293.15 K) was 1.55e-05. For the same molecule, the solubility (mole fraction) (in cyclohexane, 298.15 K) was 2e-05, the solubility (mole fraction) (in cyclohexane, 303.15 K) was 2.51e-05 and the solubility (mole fraction) (in cyclohexane, 308.15 K) was 3.14e-05. The solubility (mole fraction) (in cyclohexane, 313.15 K) was 3.89e-05, the solubility (mole fraction) (in cyclohexane, 318.15 K) was 4.81e-05 and the solubility (mole fraction) (in cyclohexane, 323.15 K) was 5.96e-05. For the same molecule, the solubility (mole fraction) (in ethanol, 283.15 K) was 0.00113, the solubility (mole fraction) (in ethanol, 288.15 K) was 0.0013 and the solubility (mole fraction) (in ethanol, 293.15 K) was 0.00148. It also gave a solubility (mole fraction) (in ethanol, 298.15 K) of 0.00169, a solubility (mole fraction) (in ethanol, 303.15 K) of 0.00192 and a solubility (mole fraction) (in ethanol, 308.15 K) of 0.00217. The solubility (mole fraction) (in ethanol, 313.15 K) was 0.00244, the solubility (mole fraction) (in ethanol, 318.15 K) was 0.00274 and the solubility (mole fraction) (in ethanol, 323.15 K) was 0.00306. The solubility (mole fraction) (in ethyl acetate, 283.15 K) was 0.000126, the solubility (mole fraction) (in ethyl acetate, 288.15 K) was 0.00015 and the solubility (mole fraction) (in ethyl acetate, 293.15 K) was 0.00018. It also gave a solubility (mole fraction) (in ethyl acetate, 298.15 K) of 0.000215, a solubility (mole fraction) (in ethyl acetate, 303.15 K) of 0.000256 and a solubility (mole fraction) (in ethyl acetate, 308.15 K) of 0.000301. It also gave a solubility (mole fraction) (in ethyl acetate, 313.15 K) of 0.000355, a solubility (mole fraction) (in ethyl acetate, 318.15 K) of 0.000414 and a solubility (mole fraction) (in ethyl acetate, 323.15 K) of 0.000481. The solubility (mole fraction) (in isopropanol, 283.15 K) was 0.000389, the solubility (mole fraction) (in isopropanol, 288.15 K) was 0.000456 and the solubility (mole fraction) (in isopropanol, 293.15 K) was 0.000555. It also gave a solubility (mole fraction) (in isopropanol, 298.15 K) of 0.000674, a solubility (mole fraction) (in isopropanol, 303.15 K) of 0.000806 and a solubility (mole fraction) (in isopropanol, 308.15 K) of 0.000966. For the same molecule, the solubility (mole fraction) (in isopropanol, 313.15 K) was 0.00115, the solubility (mole fraction) (in isopropanol, 318.15 K) was 0.00137 and the solubility (mole fraction) (in isopropanol, 323.15 K) was 0.00165. The solubility (mole fraction) (in n-butanol, 283.15 K) was 0.000235, the solubility (mole fraction) (in n-butanol, 288.15 K) was 0.000287 and the solubility (mole fraction) (in n-butanol, 293.15 K) was 0.000342. For the same molecule, the solubility (mole fraction) (in n-butanol, 298.15 K) was 0.000416, the solubility (mole fraction) (in n-butanol, 303.15 K) was 0.0005 and the solubility (mole fraction) (in n-butanol, 308.15 K) was 0.000601. It also gave a solubility (mole fraction) (in n-butanol, 313.15 K) of 0.000723, a solubility (mole fraction) (in n-butanol, 318.15 K) of 0.000866 and a solubility (mole fraction) (in n-butanol, 323.15 K) of 0.00103. For the same molecule, the solubility (mole fraction) (in n-propanol, 283.15 K) was 0.000715, the solubility (mole fraction) (in n-propanol, 288.15 K) was 0.000804 and the solubility (mole fraction) (in n-propanol, 293.15 K) was 0.000911. The solubility (mole fraction) (in n-propanol, 298.15 K) was 0.00104, the solubility (mole fraction) (in n-propanol, 303.15 K) was 0.00119 and the solubility (mole fraction) (in n-propanol, 308.15 K) was 0.00137. The solubility (mole fraction) (in n-propanol, 313.15 K) was 0.00156, the solubility (mole fraction) (in n-propanol, 318.15 K) was 0.00181 and the solubility (mole fraction) (in n-propanol, 323.15 K) was 0.0021. It also gave a solubility (mole fraction) (in toluene, 283.15 K) of 2.5e-05, a solubility (mole fraction) (in toluene, 288.15 K) of 3.22e-05 and a solubility (mole fraction) (in toluene, 293.15 K) of 4.06e-05. It also gave a solubility (mole fraction) (in toluene, 298.15 K) of 5.12e-05, a solubility (mole fraction) (in toluene, 303.15 K) of 6.28e-05 and a solubility (mole fraction) (in toluene, 308.15 K) of 7.57e-05. The solubility (mole fraction) (in toluene, 313.15 K) was 9.19e-05, the solubility (mole fraction) (in toluene, 318.15 K) was 0.000112 and the solubility (mole fraction) (in toluene, 323.15 K) was 0.000134.
